Results from patent publication US6538151B1, “Modifications of 2-amino-4-(4-fluorobenzylamino)-1-ethoxycarbonylaminobenzene, and processes for their preparation” (Asta Medica Aktiengesellschaft, priority 1997, dated 2003).

How the values were obtained:
Format in all cases: physicochemical
[1] = Solubility behaviour of the crystals; details: finely granular crystals
Excerpt: The modifications B and C can be employed for specific pharmaceutical forms such as capsules and dry ampoules.

[2] = Stability of the crystal structure (lattice) on heating and storage
Experimental: The crystal structure is stable up to approx. 80° C.

[3] = Lattice stability on contact with solvents; details: contact with solvents such as water, ethanol, acetone or toluene

In the case of `CCOC(=O)Nc1ccc(NCc2ccc(F)cc2)cc1N` [modification C, 2-amino-4-(4-fluorobenzylamino)-1-ethoxycarbonylaminobenzene], the “speed of dissolution of crystals” value [1] was “particularly rapidly soluble”.
In the case of `CCOC(=O)Nc1ccc(NCc2ccc(F)cc2)cc1N` [modification A, 2-amino-4-(4-fluorobenzylamino)-1-ethoxycarbonylaminobenzene], the “lattice changes after storage” value ([2]; relatively long storage at temperatures up to 60° C. and relative atmospheric humidities up to 70%) was “no lattice changes are observed”, the “crystal structure is stable up to (temperature)” value ([2]; solid state, temperature limit of lattice stability) was “approx. 80 °C” and the “lattice change on contact with solvents” value [3] was “no lattice change”.
